The subject of assay [1] is H187 Human Small Cell Carcinoma. The assay can be described thus: Human tumor xenograft model in mice, H187. It counts as in vivo. From the text: (§1) Human Tumor Xenograft Models in Mice
(§2) All rodents were obtained from Jackson Laboratory. (Bar Harbor, Me.), and maintained in an ammonia-free environment in a defined and pathogen-free colony. All mice were quarantined approximately 1 week prior to their use for tumor propagation and drug efficacy testing. Mice were fed food and water ad libitum. The animal care program of Bristol-Myers Squibb Pharmaceutical Research Institute is fully accredited by the American Association for Accreditation of Laboratory Animal Care (AAALAC). All experiments were performed in accordance with Bristol-Myers Squibb (BMS) animal test methods and guidelines.
(§3) Tumor xenografts were grown and maintained subcutaneously (SC) in NSG (NOD scid IL2 receptor gamma chain knockout) mice (Jackson Lab). Tumors were propagated as subcutaneous transplants using tumor fragments obtained from donor mice.
(§4) Preclinical Chemotherapy Trials
(§5) The required numbers of animals needed to detect a meaningful response were pooled at the start of the experiment and each was given bilateral subcutaneous implants of two tumor fragments (˜20 mg) with a 13-gauge trocar. Tumors were allowed to grow to the pre-determined size window (tumors outside the range were excluded) and animals were evenly distributed to various treatment and control groups. There were typically 6-8 mice per treatment and control groups, consisting of 10-12 tumors. Treatment of each animal was based on individual body weight. Treated animals were checked daily for treatment related toxicity/mortality. Each group of animals was weighed before the initiation of treatment (WO and then again following the last treatment dose (Wt2). The difference in body weight (Wt2-Wt1) provides a measure of treatment-related toxicity.
(§6) Tumor response was determined by measurement of tumors with a caliper twice a week, until the tumors reached a predetermined “target” size of 0.5 gm or 1 gm depending on the tumor type. Tumor weights (mg) were estimated from the formula:
(§7) Tumor weight=(length×width^2)÷2
(§8) Tumor response criteria are expressed in terms of tumor growth inhibition (% TGI). Tumor growth delay is defined as the difference in time (days) required for the treated tumors (T) to reach a predetermined target size compared to those of the control group (C). For this purpose, the tumor weight of a group is expressed as medium tumor weight (MTW).
(§9) Tumor growth inhibition is calculated as follows:
(§10) where, Ct=Median control tumor size at end of treatment C0=Median control tumor size at treatment initiation Tt=Median tumor size of treated group at end of treatment T0=Median tumor size of treated group at treatment initiation
(§11) Tumor response was also expressed in terms of tumor growth delay and expressed as log cell kill (LCK value), defined as the difference in time (days) required for the treated tumors (T) to reach a predetermined target size compared to those of the control group (C).
(§12) Whenever possible, antitumor activity was determined at a range of dose levels up to the maximum tolerated dose (MTD) which is defined as the dose level immediately […] which excessive toxicity (i.e. more than one death) occurred. When death occurred, the day of death was recorded. Treated mice dying prior to having their tumors reach target size were considered to have died from drug toxicity. No control mice died bearing tumors less than target size. Treatment groups with more than one death caused by drug toxicity were considered to have had excessively toxic treatments and their data were not included in the evaluation of a compound's antitumor efficacy.
(§13) For administration of BET inhibitors to rodents, compounds were dissolved in […]/10% TPGS/10% Ethanol. BET inhibitors were typically administered orally on a schedule of QDx7 or QDx10 (5 day-on-2 day-off), although other schedules had also been evaluated and shown to be efficacious
(Xenograft models place foreign cells or tissue in a host animal.)

Assay [2] relates to JJN3R multiple myeloma cell line. The assay can be described thus: Human tumor xenograft model in mice, JJN3R. Format: in vivo. Particulars: Mus musculus, JJN-3R, po, QDx7, read-out: % TGI.
Excerpt: as §1, §2, §3, §4, §5, §6, §7, §8, §9, §10, §11, §12, §13

Assay [3] concerns the target BRD4 (Homo sapiens, UniProt O60885). The assay can be described thus: Time resolved fluorescence resonance energy transfer (TR-FRET) binding assay, BRD4 bromodomain. Conditions: one of the FRET assays described.

The results in this text go back to patent publication US20160318928A1, “TRICYCLIC COMPOUNDS AS ANTICANCER AGENTS” (BRISTOL-MYERS SQUIBB COMPANY, priority 2013, published 2016).

Structures are written as SMILES.

As to `Cc1noc(C)c1-c1cnc2c3ccc(C(C)(C)O)cc3n(C(c3ccccc3)C3CCOCC3)c2c1` (single isomer, unassigned) [Example 1, 2-[3-(Dimethyl-1,2-oxazol-4-yl)-5-[oxan-4-yl(phenyl)methyl]-5H-pyrido[3,2-b]indol-7-yl]propan-2-ol], the “% TGI” value in assay [1] (5 mg/kg, 2QDx7) came to 88.0%; in assay [1] (15 mg/kg, 2QDx7), 104.0%. Also, the LCK in assay [1] (5 mg/kg, 2QDx7) came out at 1.0; in assay [1] (15 mg/kg, 2QDx7), 1.2.
With `Cc1nnn(C)c1-c1cnc2c3ccc(C(C)(C)O)cc3n([C@H](c3ccccc3)C3CCOCC3)c2c1` (single isomer, unassigned) [Example 54], the “% TGI” value in assay [1] (5 mg/kg, QDx7) is recorded as 100.0%; in assay [1] (10 mg/kg, QDx7), 102.0%. Also, the LCK in assay [1] (5 mg/kg, QDx7) was 0.7; in assay [1] (10 mg/kg, QDx7), 0.9.
In the case of `Cc1nnn(C)c1-c1cnc2c3ccc(C(C)(O)C4CC4)c(F)c3n([C@H](c3ccccc3F)C3CCOCC3)c2c1` (single isomer, unassigned) [Example 436], in assay [2], the inhibition in vivo at 1 mg/kg amounted to 71% and the inhibition in vivo at 4 mg/kg stood at 116%.
The matching figures for `[2H]C([2H])([2H])c1nnn(C)c1-c1cnc2c3ccc(C(C)(C)O)c(F)c3n([C@H](c3ccccc3)C3CCOCC3)c2c1` [Example 278, 2-{6-Fluoro-3-[4-(^2H3)methyl-1-methyl-1H-1,2,3-triazol-5-yl]-5-[(S)-oxan-4-yl(phenyl)methyl]-5H-pyrido[3,2-b]indol-7-yl}propan-2-ol]: 103% and 110%.
In the case of `[2H]C([2H])([2H])c1nnn(C)c1-c1cnc2c3cc(F)c(C(C)(C)O)cc3n([C@H](c3ccccc3F)C3CCOCC3)c2c1` [Example 276, 2-{8-Fluoro-5-[(S)-(2-fluorophenyl)(oxan-4-yl)methyl]-3-[4-(^2H3)methyl-1-methyl-1H-1,2,3-triazol-5-yl]-5H-pyrido[3,2-b]indol-7-yl}propan-2-ol], in assay [2], the inhibition in vivo at 1 mg/kg was found to be 56% and the inhibition in vivo at 4 mg/kg stood at 95%.
By IC50 is commonly meant the concentration that inhibits the measured activity by half. A lower IC50 goes with greater potency. In turn, `[2H]C([2H])([2H])c1nnn(C)c1-c1cnc2c3ccc(C(C)(C)O)cc3n(C(c3ccc(F)cc3)C3CCOCC3)c2c1` (stereo not shown) [Example 267] registered a concentration for half-maximal inhibition (IC50) in assay [3] below 5 nM. Besides, in assay [2], the inhibition in vivo at 1 mg/kg stood at 10% and the inhibition in vivo at 4 mg/kg is 67%.
As for `[2H]C([2H])([2H])c1nnn(C)c1-c1cnc2c3ccc(S(C)(=O)=O)cc3n([C@H](c3ccccc3)C3CCOCC3)c2c1` [Example 263, 5-{7-Methanesulfonyl-5-[(S)-oxan-4-yl(phenyl)methyl]-5H-pyrido[3,2-b]indol-3-yl}-4-(^2H3)methyl-1-methyl-1H-1,2,3-triazole], in assay [2], the inhibition in vivo at 1 mg/kg is 6% and the inhibition in vivo at 4 mg/kg worked out at 52%.
